{
  "source": "patent US9789110B2",
  "about": "“Diacylglycerol acyltransferase 2 inhibitors” (PFIZER INC., priority 2014, dated 2017)",
  "key": {"[1]": {"target": "hDGAT2 (Homo sapiens (Human), UniProt Q96PD7)", "sequence (Q96PD7 whole entry)": "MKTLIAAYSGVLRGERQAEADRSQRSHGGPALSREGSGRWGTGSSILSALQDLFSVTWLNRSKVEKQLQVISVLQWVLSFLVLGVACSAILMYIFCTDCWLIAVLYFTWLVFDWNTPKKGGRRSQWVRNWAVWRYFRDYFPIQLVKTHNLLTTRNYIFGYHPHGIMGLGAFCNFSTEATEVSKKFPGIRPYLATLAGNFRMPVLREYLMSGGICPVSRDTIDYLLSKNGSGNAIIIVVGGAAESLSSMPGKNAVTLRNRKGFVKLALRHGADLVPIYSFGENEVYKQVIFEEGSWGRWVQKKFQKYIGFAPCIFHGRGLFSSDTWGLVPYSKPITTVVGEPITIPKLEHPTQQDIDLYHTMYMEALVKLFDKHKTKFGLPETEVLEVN", "assay": "In vitro DGAT2 assay, hDGAT2 membrane fraction, [14C]decanoyl-CoA scintillation readout", "assay_type": "biochemical", "settings": "geometric mean; FLAG-hDGAT2 membrane fraction; 2 h preincubation; read-out: IC50 for inhibition of DGAT2", "description": "Recombinant baculovirus for the FLAG-tagged hDGAT2 was generated in SF9 insect cells using Bac-to-Bac baculovirus expression system (Invitrogen) according to the manufacturer's protocol. For the expression of hDGAT2, SF9 cells (20 L) grown in Sf90011 media were infected with hDGAT2 baculovirus at a multiplicity of infection of 1 in a Wave Bioreactor System 20/50P wave bag (GE Healthcare). After 40 hours of infection, the cells were then harvested by centrifugation at 5,000×g. The cell pellets were washed by resuspending in phosphate buffered saline (PBS) and collected by centrifugation at 5,000×g. The cell paste was flash frozen in liquid N2 and stored at −80° C. until needed. All operations below were at 4° C. unless otherwise noted. The cells were resuspended in lysis buffer (50 mM Tris-HCl, pH 8.0, 250 mM sucrose) including 1 mM ethylenediaminetetraacetic acid (EDTA) and the complete protease inhibitor cocktail (Roche Diagnostics) at a ratio of 3 ml buffer per 1 g cell paste. The cells were lysed by dounce homogenizer. The cell debris was removed by centrifugation at 1,000×g for 20 min, and the supernatant was centrifuged at 100,000×g for 1 hour. The resulting pellet was rinsed three times by filling ultracentrifuge tubes to the top with ice cold PBS before decanting. The washed pellet was resuspended with gentle stirring for 1 hour in lysis buffer containing 8 mM 3-[(3-cholamidopropyl)dimethylammonio]-1-propanesulfonate (CHAPS) at a ratio of 1 mL buffer per 1 g of original cell paste and centrifuged again at 100,000×g for 1 hour. The resulting supernatant was aliquotted, flash frozen in liquid N2, and stored at −80° C. until use.\nFor determination of IC50 values, the reactions were carried out in 384-well white Polyplates (Perkin Elmer) in a total volume of 20 μL. To […] compounds dissolved in 100% DMSO and spotted at the bottom of each well, 5 μL of 0.04% bovine serum albumin (BSA) (fatty acid free, Sigma Aldrich) was added and the mixture was incubated at room temperature for 20 minutes. To this mixture, 10 μL of hDGAT2 membrane fraction (0.01 mg/mL) diluted in 100 mM Hepes-NaOH, pH 7.4, 20 mM MgCl2 containing 200 nM methyl arachidonyl fluorophosphonate (Cayman Chemical; dried from ethyl acetate stock solution under argon gas and dissolved in DMSO as 5 mM stock) was added. After this mixture was preincubated at room temperature for 2 hours, DGAT2 reactions were initiated by the addition of 4 μL of substrates containing 30 μM [1-^14C]decanoyl-CoA (custom-synthesized by Perkin Elmer, 50 mCi/mmol) and 125 μM 1,2-didecanoyl-sn-glycerol (Avanti Polar Lipids) dissolved in 12.5% acetone. The reaction mixtures were incubated at room temperature for 40 min and the reactions were stopped by addition of 5 μL of 1% H3PO4. After the addition of 45 μL MicroScint-E (Perkin-Elmer), plates were sealed with Top Seal-A covers (Perkin-Elmer) and phase partitioning of substrates and products was achieved using a HT-91100 microplate orbital shaker (Big Bear Automation, Santa Clara, Calif.). Plates were centrifuged at 2,000×g for 1 min in an Allegra 6R Centrifuge (Beckman Coulter) and then were sealed again with fresh covers before reading in a 1450 Microbeta Wallac Trilux Scintillation Counter (Perkin Elmer). DGAT2 activity was measured by quantifying the generated product [^14C]tridecanoylglycerol in the upper organic phase.\nInhibitors were tested at eleven different concentrations to generate IC50 values for each compound."}, "[2]": {"target": "DGAT2 in primary human hepatocytes (Homo sapiens (Human), UniProt Q96PD7)", "sequence (Q96PD7 whole entry)": "as above", "assay": "IC50 for DGAT2 inhibitors in human hepatocytes, [14C]-glycerol incorporation into lipids", "assay_type": "cell-based", "description": "For evaluation of the effects of DGAT2 inhibitors in a cell-based setting, cryopreserved human hepatocytes (Lot QOC and NON, Celsis, Chicago, Ill.) were thawed and plated onto type I collagen-coated plates according to the manufacturer's instructions. After 24 hours overnight recovery period, the cells were overlayed with media containing 250 μg/ml Matrigel (BD Biosciences, San Jose, Calif.). The following day, media was aspirated and replaced with serum-free Williams Media E (Life Technologies, Grand Island, N.Y.) containing 400 μM sodium dodecanoate (Sigma-Aldrich, St. Louis, Mo.). Forty minutes later, DGAT2 inhibitors (prepared as 100× stocks in 25% DMSO, 75% Williams' Media E) were added to the desired final concentration. […] After a 20 minute preincubation, 0.2 μCi [1,3-^14C]-glycerol glycerol (American Radio Chemicals, St. Louis, Mo.) was added to each well and mixed by gentle pipetting prior to a 3 hour incubation. At this point, media was aspirated and the cells were lysed in isopropyl alcohol: tetrahydrofuran (9:1) prior to centrifugation at 3000 rpm for 5 minutes. Radiolabeled lipids were resolved using a 2-solvent system by thin layer chromatography using standard technique (solvent 1 contained ethyl acetate:isopropyl alcohol:chloroform:methanol:0.25% potassium chloride in water (100:100:100:40.2:36.1, v/v/v/v) and solvent 2 contained hexane: diethyl ether: acetic acid (70:27:3, v/v/v)). After separation, radiolabeled lipids were visualized using a Molecular Dynamics' PhosphorImager system. The half maximal inhibitory concentrations (IC50 values) were determined using GraphPad Prism (GraphPad Software, Inc., La Jolla, Calif.).\nTable 4 below provides IC50 values for the Examples in accordance with the above-described assay. Results were reported as average IC50 values, low and high IC50 range (95% confidence interval)."}, "[3]": {"settings": "average, cryopreserved human hepatocytes, selective DGAT1 inhibitor 3 μM in all wells, 3 hour incubation, read-out: IC50 in primary human hepatocytes"}},
  "note": "Like-named read-outs stand apart in the source and are kept apart here.",
  "data": [
    {"smiles": "CCOc1ccccc1O[C@@H]1CCCN(c2ncc(C(=O)N[C@H](C)c3cccc(C(=O)O)c3)cn2)C1", "note": "[Example 3, 3-((R)-1-(2-((R)-3-(2-ethoxyphenoxy)piperidin-1-yl)pyrimidine-5-carboxamido)ethyl)benzoic acid]", "values": [
      {"measurement": "IC50", "setting": "[1]", "value": 88.4, "unit": "nM"},
      {"measurement": "IC50", "setting": "[2]; [3]", "value": 29.2, "unit": "nM"}
    ]},
    {"smiles": "CCOc1ccccc1O[C@@H]1CCCN(c2ncc(C(=O)NCc3cc(C(=O)O)cnc3C)cn2)C1", "note": "[Example 12, (R)-5-((2-(3-(2-ethoxyphenoxy)piperidin-1-yl)pyrimidine-5-carboxamido)methyl)-6-methylnicotinic acid]", "values": [
      {"measurement": "IC50", "setting": "[1]", "value": 62.3, "unit": "nM"},
      {"measurement": "IC50", "setting": "[2]; [3]", "value": 67.5, "unit": "nM"}
    ]},
    {"smiles": "CCNC(=O)c1cnc(N2CCC[C@@H](Oc3ccc(C#N)cc3OCC)C2)nc1", "note": "[Example 17, (R)-2-(3-(4-cyano-2-ethoxyphenoxy)piperidin-1-yl)-N-ethylpyrimidine-5-carboxamide]", "values": [
      {"measurement": "IC50", "setting": "[1]", "value": 182, "unit": "nM"},
      {"measurement": "IC50", "setting": "[2]; [3]", "value": 19.8, "unit": "nM"}
    ]},
    {"smiles": "CCNC(=O)c1cnc(N2CCC[C@@H](Oc3ccccc3OCC)C2)nc1", "note": "[Example 4, (R)-2-(3-(2-ethoxyphenoxy)piperidin-1-yl)-N-ethylpyrimidine-5-carboxamide]", "values": [
      {"measurement": "IC50", "setting": "[1]", "value": 35, "unit": "nM"},
      {"measurement": "IC50", "setting": "[2]; [3]", "value": 6.6, "unit": "nM"}
    ]},
    {"smiles": "CCOc1ccccc1O[C@@H]1CCCN(c2ncc(C(=O)NCc3ccc(C(=O)O)cc3C)cn2)C1", "note": "[Example 13, (R)-4-((2-(3-(2-ethoxyphenoxy)piperidin-1-yl)pyrimidine-5-carboxamido)methyl)-3-methylbenzoic acid]", "values": [
      {"measurement": "IC50", "setting": "[1]", "value": 45.2, "unit": "nM"},
      {"measurement": "IC50", "setting": "[2]; [3]", "value": 20.7, "unit": "nM"}
    ]},
    {"smiles": "CCOc1ccccc1O[C@@H]1CCCN(c2ncc(C(=O)NCc3ccc(C(C)C(=O)O)cc3)cn2)C1", "note": "(single isomer, unassigned) [Example 15]", "values": [
      {"measurement": "IC50", "setting": "[1]", "value": 2.4, "unit": "nM"},
      {"measurement": "IC50", "setting": "[2]; [3]", "value": 78.8, "unit": "nM"}
    ]},
    {"smiles": "CCOc1ccccc1O[C@@H]1CCCN(c2ncc(C(=O)NCc3cc(O)no3)cn2)C1", "note": "[Example 19.2, (R)-2-(3-(2-ethoxyphenoxy)piperidin-1-yl)-N-((3-hydroxyisoxazol-5-yl)methyl)pyrimidine-5-carboxamide]", "values": [
      {"measurement": "IC50", "setting": "[1]", "value": 262, "unit": "nM"},
      {"measurement": "IC50", "setting": "[2]", "value": 341, "unit": "nM"}
    ]},
    {"smiles": "CCOc1ccccc1O[C@@H]1CCCN(c2ncc(C(=O)NCc3cc(C(=O)O)ccc3OC)cn2)C1", "note": "[Example 11, (R)-3-((2-(3-(2-ethoxyphenoxy)piperidin-1-yl)pyrimidine-5-carboxamido)methyl)-4-methoxybenzoic acid]", "values": [
      {"measurement": "IC50", "setting": "[1]", "value": 122, "unit": "nM"},
      {"measurement": "IC50", "setting": "[2]; [3]", "value": 6.8, "unit": "nM"}
    ]},
    {"smiles": "CCOc1ccccc1O[C@@H]1CCCN(c2ncc(C(=O)NCc3cc(C(=O)O)ccc3F)cn2)C1", "note": "[Example 10, (R)-3-((2-(3-(2-ethoxyphenoxy)piperidin-1-yl)pyrimidine-5-carboxamido)methyl)-4-fluorobenzoic acid]", "values": [
      {"measurement": "IC50", "setting": "[1]", "value": 87.3, "unit": "nM"},
      {"measurement": "IC50", "setting": "[2]; [3]", "value": 10.4, "unit": "nM"}
    ]},
    {"smiles": "CCOc1ccccc1O[C@@H]1CCCN(c2ncc(C(=O)N3CC[C@H]3C(N)=O)cn2)C1", "note": "[Example 20.10, (S)-1-(2-((R)-3-(2-ethoxyphenoxy)piperidin-1-yl)pyrimidine-5-carbonyl)azetidine-2-carboxamide]", "values": [
      {"measurement": "IC50", "setting": "[1]", "value": 170, "unit": "nM"},
      {"measurement": "IC50", "setting": "[2]; [3]", "value": 59.8, "unit": "nM"}
    ]},
    {"smiles": "CCOc1ccccc1O[C@@H]1CCCN(c2ncc(C(=O)NCc3ccnc(C(=O)O)c3)cc2F)C1", "note": "[Example 8, (R)-4-((6-(3-(2-ethoxyphenoxy)piperidin-1-yl)-5-fluoronicotinamido)methyl)picolinic acid]", "values": [
      {"measurement": "IC50", "setting": "[1]", "value": 9.7, "unit": "nM"},
      {"measurement": "IC50", "setting": "[2]; [3]", "value": 51.7, "unit": "nM"}
    ]},
    {"smiles": "CCOc1ccccc1O[C@@H]1CCCN(c2ncc(C(=O)NCc3cc(C)cc(C(=O)O)c3)cn2)C1", "note": "[Example 16, (R)-3-((2-(3-(2-ethoxyphenoxy)piperidin-1-yl)pyrimidine-5-carboxamido)methyl)-5-methylbenzoic acid]", "values": [
      {"measurement": "IC50", "setting": "[1]", "value": 47.7, "unit": "nM"},
      {"measurement": "IC50", "setting": "[2]; [3]", "value": 45, "unit": "nM"}
    ]},
    {"smiles": "CCOc1ccccc1O[C@@H]1CCCN(c2ncc(C(=O)NCCn3cncn3)cn2)C1", "note": "[Example 19.10, (R)-N-(2-(1H-1,2,4-triazol-1-yl)ethyl)-2-(3-(2-ethoxyphenoxy)piperidin-1-yl)pyrimidine-5-carboxamide]", "values": [
      {"measurement": "IC50", "setting": "[1]", "value": 32.4, "unit": "nM"}
    ]},
    {"smiles": "CCOc1ccccc1O[C@@H]1CCCN(c2ncc(C(=O)NCC(=N)N)cn2)C1", "note": "[Example 19.5, (R)-N-(2-amino-2-iminoethyl)-2-(3-(2-ethoxyphenoxy)piperidin-1-yl)pyrimidine-5-carboxamide]", "values": [
      {"measurement": "IC50", "setting": "[1]", "value": 124, "unit": "nM"}
    ]}
  ]
}
